Patent US20260283924A1, “TOPICAL COMPOSITIONS FOR PROMOTING HAIR GROWTH” (ESTETRA SRL, priority 2023, published 2026)

System: occipital hair follicles (healthy donor)
Assay: Healthy donor hair follicle organ culture (ex vivo model), Example 8
Assay type: cell-based, human
Settings: 300 nM
Description: In brief, 24 full-length occipital hair follicles (HF) were obtained from one healthy donor. […] Test substance (either vehicle (0.03% EtOH), E2 at concentration of 300 nM or E4 at concentrations of 3 μM or 300 nM) was added to the medium at the end of the 24 h. Total culturing time was 5 days depending on the stage of the HFs in the vehicle group. The experimental design is depicted in FIG. 23.

## C[C@]12CC[C@@H]3c4ccc(O)cc4CC[C@H]3[C@@H]1CC[C@@H]2O [Formulation E2, 17beta-estradiol]
  K15 expression in the suprabulbar outer root sheath: tendentially increased
  area of the dermal papilla: no effect
  density of cells in the dermal cup of anagen HFs: no effect
  density of cells in the dermal papilla: no effect
  density of cells in the dermal papilla stalk: no effect
  hair matrix keratinocyte proliferation: tendentially increased
  hair shaft production (reduction vs vehicle): significantly reduced
  microscopic hair cycle: did not affect the hair cycle
  number of CD34+ cells in the suprabulbar outer root sheath: no effect
  number of cells (K15) in the suprabulbar outer root sheath: tendentially increased
  total number of cells in the dermal cup of anagen HFs: no effect
  total number of cells in the dermal papilla: no effect
  total number of cells in the dermal papilla stalk: no effect
Listed as Estradiol
  K15 expression in the suprabulbar outer root sheath: tendentially increase K15 expression
  area of the dermal papilla: does not display a significant effect
  density of cells in the dermal cup of anagen HFs: does not display a significant effect
  density of cells in the dermal papilla: does not display a significant effect
  density of cells in the dermal papilla stalk: does not display a significant effect
  hair matrix keratinocyte proliferation: increased
  hair shaft production (reduction vs vehicle): Reduction of hair shaft production
  microscopic hair cycle: does not affect hair cycle
  number of CD34+ cells in the suprabulbar outer root sheath: does not display any effect
  number of cells (K15) in the suprabulbar outer root sheath: tendentially increase
  total number of cells in the dermal cup of anagen HFs: does not display a significant effect
  total number of cells in the dermal papilla: does not display a significant effect
  total number of cells in the dermal papilla stalk: does not display a significant effect
